What was measured:
[1] = system: patients with relapsed or refractory (R/R) FL; experiment: Phase Ib/II study, dose-escalation phase: dose-limiting toxicities and recommended Phase II dose
Description: The purpose of the FL dose-escalation phase was to identify the RP2D for polatuzumab vedotin and the RP2D for lenalidomide when combined with a fixed dose of obinutuzumab as induction treatment.
Patients were closely monitored for adverse events during the dose limiting toxicity (DLT) assessment window, defined as the first treatment cycle (from Day 1 of Cycle 1 to Day 1 of Cycle 2). Patients experiencing a DLT during the DLT assessment period continued receiving study treatment once the event resolved if determined it was safe to continue treatment and there was potential for clinical benefit. Patients who discontinued from the study prior to completing the DLT assessment window for reasons other than a DLT were considered non-evaluable for dose-escalation decisions and RP2D assessments and were replaced by an additional patient at that same dose level. Patients who missed one or more doses of polatuzumab vedotin or obinutuzumab or five consecutive daily doses of lenalidomide during the DLT assessment window for reasons other than a DLT were also replaced and considered non-evaluable for dose-escalation decisions. Patients who received supportive care during the DLT assessment window that could confound the evaluation of DLTs were replaced at the discretion of the Medical Monitor.
A standard 3+3 dose-escalation schema was used. […]

[2] = system: patients with relapsed or refractory (R/R) FL; details: for Dose reductions: n = 56
Description: This Phase Ib/II, open label, multicenter, non-randomized, dose-escalation study evaluated the safety, efficacy, and pharmacokinetics of induction treatment consisting of obinutuzumab (GA101 or G) in combination with polatuzumab vedotin (anti-CD79b(huMA79b.v28)-MC-vc-PAB-MMAE ADC (DCDS4501A) or Pola) and lenalidomide (Len) (G+Pola+Len) in patients with relapsed or refractory (R/R) FL, followed by post induction treatment with obinutuzumab in combination with lenalidomide. The study included an initial dose-escalation phase, followed by an expansion phase during which polatuzumab vedotin and lenalidomide were given at their recommended Phase II doses (RP2Ds).
The primary efficacy endpoint was based on IRC assessment of response. Patients were monitored closely for adverse events throughout the study and for at least 90 days after the last dose of study treatment. To characterize the pharmacokinetic (PK) properties of obinutuzumab, polatuzumab vedotin, and lenalidomide, blood samples were obtained at various timepoints before and during study treatment administration
Safety assessments consist of monitoring and recording adverse events, including serious adverse events and non-serious adverse events of special interest, performing protocol-specified safety laboratory assessments, measuring protocol-specified vital signs, and conducting other protocol-specified tests that were deemed critical to the safety evaluation of the study.
The safety analyses include all treated patients (i.e., patients who received any amount of study treatment). Safety is assessed through summaries of adverse events and changes from baseline in laboratory test results, shift-tables of ECGs findings, and vital signs. All adverse events occurring on or after first study treatment are summarized by mapped term, appropriate thesaurus levels, and NCI CTCAE, Version 4.0 grade. All serious adverse events, adverse events of special interest, and selected adverse events are summarized and listed. Deaths reported during the treatment period and during post-treatment follow-up are listed and summarized.
Adverse Events: NCI CTCAE, Version 4.0 is used for assessing adverse event severity. All adverse events are reported until 90 days after the last dose of study treatment. After this period, the investigator reports any serious adverse events that are believed to be related to prior study treatment and events of second malignancies for patients who received obinutuzumab. Grade 3 and 4 infections (both related and unrelated) are reported until up to 2 years after the last dose of obinutuzumab.
Infusion-Related Reactions: Adverse events that occur during or within 24 hours after the end of study treatment infusion and are judged to be related to infusion of any of the study treatment components are captured as a diagnosis (e.g., “infusion-related reaction”). If a patient experiences both a local and systemic reaction to the same dose of study treatment, each reaction is recorded separately, with signs and symptoms also recorded separately.

[3] = Example 1 interim, n = 52, given as G+Pola+Len

Patients who required lenalidomide dose reductions ([2]; Example 2, during maintenance)	Molecule	Recommended Phase II dose (RP2D) ([1]; combined with lenalidomide and fixed dose of 1000 mg obinutuzumab) [mg/kg]	Dose reductions ([2]; Example 2, given as G+Pola+Len)	Recommended Phase II dose (RP2D) ([1]; combined with polatuzumab vedotin and fixed dose of 1000 mg obinutuzumab) [mg]	AEs leading to lenalidomide dose interruptions [2, 3] [%]	AEs leading to lenalidomide dose reduction [2, 3] [%]
	polatuzumab vedotin	1.4	no dose reductions			
	obinutuzumab: anti-CD20 antibody; afucosylated glyco-engineered humanized B-Ly1 antibody		no dose reductions			
Two	Nc1cccc2c1CN(C1CCC(=O)NC1=O)C2=O (stereo not shown) [lenalidomide, 3-(4-amino-1-oxo-2,3-dihydro-1H-isoindol-2-yl)piperidine-2,6-dione]			20	52	31

From patent publication US20260021088A1, “METHODS OF USING ANTI-CD79b IMMUNOCONJUGATES TO TREAT FOLLICULAR LYMPHOMA” (Genentech, Inc., priority 2019, published 2026)
